The source made the active and inactive calls. The calls are words filed in the database; no cut-off is given here.
Assays:
[1] = Effect on differentiation of ICR mouse cerebellar granule neuron assessed as effect on neurite length of Ki67-negative cells at 100 nM incubated for 48 hrs by TUBB3 staining based immunofluorescence assay; type: tissue-based; settings: cerebellar granule neurone, 0.1 µM
[2] = Photostability of compound assessed as drug degradation at 1 mM irradiated with 8 J/cm2 light by HPLC/MS analysis; type: physicochemical; settings: read-out: Drug degradation
[3] = Effect on differentiation of ICR mouse cerebellar granule neuron assessed as effect on Ki67-negative cells with neurite outgrowth at 100 nM incubated for 48 hrs by TUBB3 staining based immunofluorescence assay; type: tissue-based; settings: cerebellar granule neurone, 0.1 µM
[4] = Effect on differentiation of ICR mouse cerebellar granule neuron assessed as effect on Ki67-positive cells with low neurites at 100 nM incubated for 48 hrs by TUBB3 staining based immunofluorescence assay; type: tissue-based; settings: cerebellar granule neurone, 0.1 µM
NIH3T3 [5] = experiment: Cytotoxicity against mouse NIH/3T3 cells assessed as reduction in cell viability at 1 to 10 uM incubated for 6 hrs by MTT assay; type: cell-based; settings: nih3t3, 6 h, dose 1-10 µM
NIH3T3 [6] = experiment: Cytotoxicity against mouse NIH/3T3 cells assessed as reduction in cell viability at 1 to 10 uM irradiated with 4 J/cm2 light followed by compound exposure and measured after 6 hrs by MTT assay; type: cell-based; settings: nih3t3, 6 h, dose 1-10 µM
[7] = Effect on differentiation of ICR mouse cerebellar granule neuron assessed as effect on neurite length of Ki67-positive cells at 100 nM irradiated with 4 J/cm2 light followed by incubation with compound for 48 hrs by TUBB3 staining based immunofluorescence assay; type: tissue-based; settings: cerebellar granule neurone, 0.1 µM
[8] = tested on: Cerebellar granule neurone; experiment: Antiproliferative activity against ICR mouse cerebellar granule neurons assessed as reduction in Ki67 expression at 100 nM irradiated with 4 J/cm2 light followed by incubation with compound for 48 hrs by immunostaining analysis; type: functional, tissue-based
[9] = Effect on differentiation of ICR mouse cerebellar granule neuron assessed as effect on Ki67-negative cells with neurite outgrowth at 100 nM irradiated with 4 J/cm2 light followed by incubation with compound for 48 hrs by TUBB3 staining based immunofluorescence assay; type: tissue-based; settings: cerebellar granule neurone, 0.1 µM
[10] = tested on: Cerebellar granule neurone; experiment: Antiproliferative activity against ICR mouse cerebellar granule neurons assessed as reduction in Ki67 expression at 100 nM incubated for 48 hrs by immunostaining analysis; type: functional, tissue-based
NIH/3T3 [11] = experiment: Inhibition of hedgehog signalling in mouse NIH/3T3 cells assessed as reduction in Gli1 mRNA expression at 1 uM measured after 6 hrs by RT-PCR analysis; type: cell-based
[12] = Effect on differentiation of ICR mouse cerebellar granule neuron assessed as effect on Ki67-positive cells with low neurites at 100 nM irradiated with 4 J/cm2 light followed by incubation with compound for 48 hrs by TUBB3 staining based immunofluorescence assay; type: tissue-based; settings: cerebellar granule neurone, 0.1 µM
NIH/3T3 [13] = experiment: Inhibition of SAG-induced hedgehog signalling in mouse NIH/3T3 cells assessed as reduction in Gli1 mRNA expression at 1 uM irradiated with 4 J/cm2 light followed by compound exposure and measured after 6 hrs by RT-PCR analysis; type: cell-based
[14] = Effect on differentiation of ICR mouse cerebellar granule neuron assessed as effect on neurite length of Ki67-positive cells at 100 nM incubated for 48 hrs by TUBB3 staining based immunofluorescence assay; type: tissue-based; settings: cerebellar granule neurone, 0.1 µM
[15] = Effect on differentiation of ICR mouse cerebellar granule neuron assessed as effect on neurite length of Ki67-negative cells at 100 nM irradiated with 4 J/cm2 light followed by incubation with compound for 48 hrs by TUBB3 staining based immunofluorescence assay; type: tissue-based; settings: cerebellar granule neurone, 0.1 µM
[16] = Photostability of compound assessed as drug degradation at 1 mM irradiated with 2 J/cm2 light by HPLC/MS analysis; type: physicochemical; settings: read-out: Drug degradation
NIH/3T3 [17] = experiment: Inhibition of SAG-induced hedgehog signalling in mouse NIH/3T3 cells assessed as reduction in Shh mRNA expression at 0.1 to 10 uM measured after 6 hrs by RT-PCR analysis; type: cell-based; settings: dose 0.1-10 µM
NIH/3T3 [18] = experiment: Inhibition of hedgehog signalling in mouse NIH/3T3 cells assessed as reduction in Gli1 mRNA expression at 0.1 to 10 uM measured after 6 hrs by RT-PCR analysis; type: cell-based; settings: dose 0.1-10 µM
NIH/3T3 [19] = experiment: Inhibition of SAG-induced hedgehog signalling in mouse NIH/3T3 cells assessed as reduction in Gli1 mRNA expression at 0.1 to 10 uM measured after 6 hrs by RT-PCR analysis; type: cell-based; settings: dose 0.1-10 µM
NIH/3T3 [20] = experiment: Inhibition of SAG-induced hedgehog signalling in mouse NIH/3T3 cells assessed as reduction in Ptc mRNA expression at 0.1 to 10 uM measured after 6 hrs by RT-PCR analysis; type: cell-based; settings: dose 0.1-10 µM
NIH/3T3 [21] = experiment: Inhibition of hedgehog signalling in mouse NIH/3T3 cells assessed as reduction in Shh mRNA expression at 0.1 to 10 uM measured after 6 hrs by RT-PCR analysis; type: cell-based; settings: dose 0.1-10 µM
NIH/3T3 [22] = experiment: Inhibition of hedgehog signalling in mouse NIH/3T3 cells assessed as reduction in Ptc mRNA expression at 0.1 to 10 uM measured after 6 hrs by RT-PCR analysis; type: cell-based; settings: dose 0.1-10 µM
NIH/3T3 [23] = experiment: Inhibition of SAG-induced hedgehog signalling in mouse NIH/3T3 cells assessed as reduction in Gli1 mRNA expression at > 1 uM measured after 6 hrs by RT-PCR analysis; type: cell-based; settings: dose microM >1, time 6.0 hrs

Row | Structure (SMILES) | Activity [1] | Activity [3] | Activity [4] | Activity (NIH3T3 [5]) | Activity (NIH3T3 [6]) | Activity [8] | Activity [14] | inhibition (NIH/3T3 [17]) | inhibition (NIH/3T3 [18]) | inhibition (NIH/3T3 [19]) | inhibition (NIH/3T3 [20]) | inhibition (NIH/3T3 [21]) | inhibition (NIH/3T3 [22]) | other results
1 | CCCN(C(=O)OC(C)c1cc(OC)c(OCCCC(=O)O)cc1[N+](=O)[O-])[C@H]1CC[C@H](N(Cc2cccc(-c3ccncc3)c2)C(=O)c2sc3ccccc3c2Cl)CC1 (stereo partly specified) | Non-Toxic | Non-Toxic | Non-Toxic | Non-Toxic | Non-Toxic | Active | Non-Toxic | – | – | – | – | – | – | degraded at 1000 µM [2]: 100%; Activity [7]: Non-Toxic; Activity [9]: Non-Toxic; Activity [10]: inactive; inhibition (NIH/3T3 [11]): inactive; Activity [12]: Non-Toxic; inhibition (NIH/3T3 [13]): Active; Activity [15]: Non-Toxic; degraded at 1000 µM [16]: 90%
2 | CC1=C2C[C@H]3[C@@H](CC=C4C[C@@H](O)CC[C@@]43C)[C@@H]2CC[C@]12O[C@@H]1C[C@H](C)CN[C@H]1[C@H]2C | – | – | – | – | – | – | – | inactive | inactive | Active | Active | inactive | inactive | –
3 | CCCN[C@H]1CC[C@H](N(Cc2cccc(-c3ccncc3)c2)C(=O)c2sc3ccccc3c2Cl)CC1 | Non-Toxic | Non-Toxic | Non-Toxic | Non-Toxic | Non-Toxic | Active | Non-Toxic | inactive | inactive | Active | Active | inactive | inactive | inhibition (NIH/3T3 [23]): Active
